Measured values: PMC13236579, “Synthesis of aryl-fused bicyclo[3.1.1]heptanes and validation as naphthyl bioisosteres” (Nature Chemistry, 2026)
Values joined by “and” are separate entries in the source; they are usually repeats but may differ in a detail not shown here. Equal entries are not always repeated. Where two headings read alike, the source gives them in different places.

Tests used:
[1] = Metabolic stability in mouse liver microsomes (MLM) with or without ANF; assay type: in vitro ADME; conditions: for half-life at 1 μM / microsomal CLint at 1 μM: CD-1, mouse, liver microsomes, 1 μM compound; for microsomal CLint at 1 μM: read-out: CLint(mic)
Description: Finally, we subjected the most promising derivatives to metabolic stability studies in mouse liver microsomes (MLMs), a validated model for understanding phase I metabolism of drugs (Table 1). To investigate whether the analogues would be susceptible to CYPs metabolism, we repeated these tests in the presence of 3 μM α-naphthoflavone (ANF). ANF is a well-known inhibitor of CYP1A enzymes, which is responsible for the CYP oxidative metabolism of naphthalene ring in ezutromid. […] These findings support the strategy that BCHep substitution mitigates the metabolic liabilities associated with ezutromid, by both preserving metabolic stability and avoiding CYP1A-mediated metabolism. [table] page 148: Fig.S178. […] Data have been obtained by RT-qPCR, and analysed using the 2-∆∆Ct method. Values obtained have been normalized to control (DMSO 1%), and presented as Mean + SEM (n=4). Statistical analysis was performed using the Ordinary One-way ANOVA followed by Dunnett’s multiple comparisons test against Vehicle Control: **: p < 0.005; ****: p < 0.0001 (grey). Metabolic stability Metabolic stability of compounds was assessed in Mouse Liver Microsomes (MLM) by WuxiAppTech (Shangai, China). Briefly, ACN solutions of test compounds ( 50a-c, i.a concentration 1μM) were dispensed in duplicate in a 96-well plate using an Apricot automation workstation. A solution of MLM (CD-1 Mouse, RILD, Cat. number LM-XS-02M) in PBS, with or without ANF, was added to each compound and plates were incubated at 37°C for 10 minutes. Reactions were then initiated by adding NADPH (i.a. 1mM, 0.5mM MgCl2) an d […] performed by adding stop solution before activating the reaction). NADPH -independent metabolism was assessed for each condition by replacing NADPH solution with PBS b uffer. Phenacetine, diclofenac and propafenone were used as controls. After proper incubation time, reaction was stopped by addition of ice -cold ACN and the plates were sealed, shaken and centrifuged at 1800 x g and 4°C for 20 minutes. The supernatant was then subjected to LC/MS-MS analysis for residual drug quantitation using 250 nM tolbutamide and 250 nM labetalol as internal standards. Half-life (t1/2) and CLint (Intrinsic clearance) were calculated using standard pharmacokinetic calculations based on the decay of drug concentration over time. […] The test compound 50b at 10 µM was incubated with liver microsomes in the presence of NADPH at […] The positive control, 7-ethoxycoumarin (7-EC) at 10 µM, was run concurrently to 147 (1 picture or pasted object on this page, not shown here)

utrophin = tested on: utrophin; parameters: method as in doi:10.1080/21678707.2018.1438261; conditions: patients with DMD, cited from earlier work
[2] = target: T1, aryl hydrocarbon receptor (AhR) (Homo sapiens, UniProt P35869); assay: AhR antagonism: CYP1A1 mRNA levels in HepG2 cells by RT-qPCR; assay type: cell-based; conditions: HepG2, 4 h incubation, 2^-ΔΔCt, normalized to DMSO control
T1 construct: Human hepatocellular carcinoma (HepG2) cell lines were acquired from Abcam; host or cells: HepG2 (human hepatocellular carcinoma)
T1 sequence (P35869 11-848): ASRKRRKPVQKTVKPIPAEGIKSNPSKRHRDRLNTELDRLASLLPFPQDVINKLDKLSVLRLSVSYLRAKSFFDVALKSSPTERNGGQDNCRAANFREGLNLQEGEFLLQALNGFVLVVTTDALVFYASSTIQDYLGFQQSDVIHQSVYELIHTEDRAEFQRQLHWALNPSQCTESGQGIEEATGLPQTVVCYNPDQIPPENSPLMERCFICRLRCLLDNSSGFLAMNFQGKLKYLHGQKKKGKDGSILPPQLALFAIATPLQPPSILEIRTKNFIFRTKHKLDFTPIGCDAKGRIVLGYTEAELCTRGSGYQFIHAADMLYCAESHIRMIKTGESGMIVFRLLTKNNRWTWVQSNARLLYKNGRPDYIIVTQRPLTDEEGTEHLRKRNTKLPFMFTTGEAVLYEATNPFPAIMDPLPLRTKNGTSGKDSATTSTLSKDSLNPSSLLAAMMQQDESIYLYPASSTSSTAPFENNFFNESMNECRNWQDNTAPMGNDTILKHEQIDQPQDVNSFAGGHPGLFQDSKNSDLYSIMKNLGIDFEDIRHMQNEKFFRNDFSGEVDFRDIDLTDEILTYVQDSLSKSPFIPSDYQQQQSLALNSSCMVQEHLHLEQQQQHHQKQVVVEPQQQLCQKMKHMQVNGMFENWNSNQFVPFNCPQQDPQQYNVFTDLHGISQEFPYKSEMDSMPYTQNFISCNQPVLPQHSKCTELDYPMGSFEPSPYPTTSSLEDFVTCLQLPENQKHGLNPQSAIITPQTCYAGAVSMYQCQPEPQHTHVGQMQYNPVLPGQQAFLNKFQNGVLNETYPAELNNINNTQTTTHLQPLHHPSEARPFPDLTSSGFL
Description: To this aim, we decided to measure the activity of ezutromid and the analogues against ezutromid's primary target, which has recently been identified as the aryl hydrocarbon receptor (AhR)[40]. This nuclear transcription factor plays a pivotal role in the metabolism of exogenous small molecules by targeting nuclear DNA to upregulate the expression of several isoforms of CYP enzymes responsible for the phase I metabolism of drugs, such as CYP1A isoforms (Fig. 5a). Therefore, AhR inhibition can be monitored by measuring the relative expression of these genes, with lower CYP1A1 mRNA levels being proportional to AhR antagonism.  Fig. 5 AhR antagonism and biological evaluation of BCHep analogues. a, A schematic representation of how ezutromid antagonizes AhR preventing its translocation into the nuclei and its subsequent upregulation of CYP1A1 enzyme. The inhibition of AhR can therefore be evaluated as a decrease in CYP1A1 expression. b, The evaluation of 50a-c as AhR antagonists compared with ezutromid. Data have been obtained by quantitative RT-qPCR and analysed using the 2^-ΔΔCt method. Values obtained have been normalized to control (DMSO 1%) and presented as mean + s.e.m. The IC50 values were determined from biological triplicates, except for compounds 50c and ezutromid, which were measured from duplicate experimental replicates.

[3] = Kinetic solubility assay in phosphate buffer; assay type: physicochemical; conditions: aqueous buffer, kinetic from dmso stock, 50 mM PB (pH 7.4), room temperature
Description: A 50 mM phosphate buffer (pH 7.4) was prepared by mixing 50 mM Na₂HPO₄ (3.549 g in 500 mL H₂O, pH ≈ 9.4) and 50 mM NaH ₂PO₄ (3.000 g in 500 mL H₂O, pH ≈ 4.5). To obtain the working buffer, 15 mL of Na₂HPO₄ solution was transferred into a 50 mL tube and adjusted to pH 7.4 ± 0.05 with 50 mM NaH₂PO₄. For solubility determination, 10 µL of compound stock solution was added to each well of a 96 -well plate, followed by 490 µL of buffer. Samples were vortexed for 2 min, shaken at 70 x g for 24 h at room temperature, and then centrifuged at 25 °C for 10 min (1800 x g). Supernatants were filtered through MultiScreen® Solvinert plates (Millipore/Merck) by centrifugation (≥ 5 min) and collected into a fresh 96 -well plate. Filtrate concentrations were quantified by LC-UV using an ACQUITY UPLC BEH C18 (1.7 µm, 50 mm) column with Mobile Phase A (0.1% TFA, 5 mM NH ₄OAc in H₂O/ACN 95:5 v/v) and Mobile Phase B (0.1% TFA, 5 mM NH ₄OAc in H₂O/ACN 5:95 v/v). […]
Compound ID Batch Media Kinetic Solubility Kinetic Solubility

[4] = MetID of 50b in liver microsomes (LC-UV-MS); assay type: in vitro ADME, human
Description: Fig.S178. Evaluation of 50a-c as AhR antagonists compared to Ezutromid. Data have been obtained by RT-qPCR, and analysed using the 2-∆∆Ct method. Values obtained have been normalized to control (DMSO 1%), and presented as Mean + SEM (n=4). Statistical analysis was performed using the Ordinary One-way ANOVA followed by Dunnett’s multiple comparisons test against Vehicle Control: **: p < 0.005; ****: p < 0.0001 (grey).
Metabolic stability of compounds was assessed in Mouse Liver Microsomes (MLM) by WuxiAppTech (Shangai, China). Briefly, ACN solutions of test compounds ( 50a-c, i.a concentration 1μM) were dispensed in duplicate in a 96-well plate using an Apricot automation workstation. […] NADPH -independent metabolism was assessed for each condition by replacing NADPH solution with PBS b uffer. […]
After proper incubation time, reaction was stopped by addition of ice -cold ACN and the plates were sealed, shaken and centrifuged at 1800 x g and 4°C for 20 minutes. The supernatant was then subjected to LC/MS-MS analysis for residual drug quantitation using 250 nM tolbutamide and 250 nM labetalol as internal standards. Half-life (t1/2) and CLint (Intrinsic clearance) were calculated using standard pharmacokinetic calculations based on the decay of drug concentration over time. […]
incubation system was reliable for metabolic study. After incubation, the samples were analyzed by LC - UV-MS. […]

[5] = with α-naphthoflavone (ANF, CYP1A inhibitor) 3 μM, with 3 μM ANF (CYP1A inhibitor)
[6] = with α-naphthoflavone (ANF, CYP1A inhibitor) 3 μM, with 3 μM ANF

Row | half-life at 1 μM ([1]; without ANF) | microsomal CLint at 1 μM ([1]; without ANF) | half-life at 1 μM [1, 5] | microsomal CLint at 1 μM [1, 6] | IC50 [2] | solubility kinetic at 24 h [3] | increase in metabolic half-life compared with ezutromid [1] | half-life compared with ezutromid [1] | Relative Abundance (UV Peak Area %Total) ([4]; 50b at 10 µM, human liver microsomes, NADPH, 37°C, 60 min) | predominant biotransformation ([4]; metabolic profiling of 50b) | SMILES | primary or secondary end points (utrophin; after 48 weeks of treatment) | levels of utrophin (utrophin; repeated dosing, 24-week data) | muscle fibre damage (utrophin; repeated dosing, 24-week data)
1 | 60 ± 5 min | 23.3 ± 2 µL/min/mg | 89 ± 6 min | 15.8 ± 1.1 µL/min/mg | 0.27 µM | < 1.56 µM and < 0.527 µg/mL | – | – | – | – | CCS(=O)(=O)c1ccc2oc(-c3ccc4ccccc4c3)nc2c1 [Ezutromid, ezutromid, reference compound] | failed to meet | increased | statistically significant reduction
2 | 94 ± 0.2 min | 14.7 ± 0.1 µL/min/mg | 108 ± 11 min | 12.8 ± 1.4 µL/min/mg | 19 ± 18 µM | < 1.56 µM and < 0.552 µg/mL | ~ 2 fold | – | – | – | CCS(=O)(=O)c1ccc2oc(C34Cc5ccccc5C(C3)C4)nc2c1 [50a] | – | – | –
3 | 40 ± 7 min | 35.6 ± 7 µL/min/mg | 42 ± 4 min | 33.6 ± 2.7 µL/min/mg | 2.12 ± 0.3 µM | < 1.56 µM and < 0.552 µg/mL | – | slight decrease | 66.02% | mono-oxygenation of the BCHep moiety | CCS(=O)(=O)c1ccc2oc(-c3ccc4c(c3)CC3CC4C3)nc2c1 [50b] | – | – | –
4 | 48 ± 8 min | 29.9 ± 4.9 µL/min/mg | 56 ± 10 min | 25.7 ± 4.6 µL/min/mg | 13.1 ± 2 µM | – | – | – | – | – | CCS(=O)(=O)c1ccc2oc(-c3ccc4c(c3)C3CC(C4)C3)nc2c1 [50c] | – | – | –
